The subject of assay [1] is APP-transfected SH-SY5Y cells. Briefly: MTT assay, cell viability of APP-transfected SH-SY5Y cells. It counts as cell-based, human. The conditions noted are these: 0.5, 1, 5, 10 and 20 μM, 4 hours, compared to the untreated APP group. The procedure:
The human APPswe/ind gene under the transcriptional control of the SV40 promoter/enhancer linked to the pCAX mammalian expression vector was obtained from addgene; The gene was deposited in the APP reservoir by Dennis Solkoe (plasmid 30145). The plasmid was amplified by DH5alpha strain in LB medium containing 50 μg/ml of ampicillin. The plasmid was purified by using a Qiagen plasmid mini kit (Cat #12143) and digested with EcoRV restriction enzyme and confirmed. The human neuroblastoma cell line SHYSY5Y used in the present in vitro experiments was cultured in DMEM medium containing 10% fetal bovine serum and 1% penicillin-streptomycin antibiotic (stock solutions concentrations of 10,000 U and 10,000 μg/ml, respectively)).
SH-SY5Y cells and HT-22 cells were inoculated into a culture flask containing the medium, and cultured until reaching the confluency of 70% to 75%. The pCAX vector with the APPswe/ind gene was transfected for 48 hours by using Lipofectamine 3000 (Life technologies) according to the manufacturers instructions.
APPswe/ind transfected SH-SY5Y cells were treated with novel peptide for 4 hours, followed by 3-[4, 5-dimethylthiazol-2-yl]-2,5-diphenyl tetrazolium bromide (MTT) analysis and Western blot analysis.
MTT assay was performed to measure the survival rate of cells treated with various concentrations of adiponectin receptor-activating novel peptide (5AA1). The cells were inoculated at 1×10^5 cells/well in a 96-well plate containing 200 μl of Dulbecco's modified Eagle's medium (DMEM). After 70% of cell confluence, SH-SY5Y cells were treated with 0.5 μM, 1 μM, 5 μM, 10 μM, and 20 μM of adiponectin receptor-activating novel peptide, and then cultured for 4 hours. At the end of the treatment, MTT (5 mg/ml in PBS) was added to each well, and the plate was cultured at a temperature of 37° C. for 4 hours. The formazan dissolved in dimethyl sulfoxide (DMSO) was added to the well and the plate was stirred in the agitator for 10 to 20 minutes. Then, the absorbance was measured at a wavelength of 550 nm to 570 nm (L1) and 620 nm to 650 nm (L2) by using a scanning microplate reader.
The L2 absorbance was measured for cell residuals and well imperfections, and the corrected absorbance (Abs.=L1−L2) of each well was calculated from 100× the absorbance of treated well/absorbance of the control well, and was used to measure the cell viability.
In general terms: Tetrazolium assays rely on reduction of a dye to a coloured formazan, in cell work by metabolically active cells.

In assay [2] the test system is primary hippocampus neurons. Briefly: In vitro electrophysiological analysis (AMPAR-mediated mEPSCs). The class given is cell-based, Sprague-Dawley rats. The conditions noted are these: compared to the Aβ group, various concentrations. On the procedure:
Primary hippocampus neurons isolated from E19 Sprague-Dawley rats were cultured to a density of 150 cells/mm^2. AMPA receptor (AMPAR)-mediated miniature excitatory postsynaptic currents (mEPSCs) were recorded by using conventional whole-cell techniques. When primary hippocampus neurons were filled with an internal solution, the electrode resistance was varied from 3 MΩ to 5 MΩ.
The inventors of the present specification performed current measurements by using an Axopatch 200A patch-clamp amplifier (Molecular Devices, Sunnyvale, Calif.).
The voltage of the membrane and the voltage of current, commands, and digitization were adjusted by using Digidata 1322A connected to Clampex 9.2 (Molecular Devices, Sunnyvale, Calif.) of the pClamp software package on an IBM-compatible computer. The inventors of the present specification analyzed data by using Clampfit (Molecular Devices, Sunnyvale, Calif.) and Prism 4.0 (GraphPad, San Diego, Calif.). The current was low-pass filtered at 2 kHz by using an amplifiers four-pole Bessel filter. […]
The cumulative probability curve of mEPSCs was calculated by using Clampfit 9.0 software and Prism 4.0 (GraphPad, San Diego, Calif.). […]

As for “RGPCG (adiponectin receptor-activating peptide) [5AA1]”, the cell viability entry in assay [1] is “concentration-dependently increased”. For the same substance, the mEPSC frequency entry in assay [2] is reported as “statistically significantly increased”.

The values above are taken from patent publication US10618937B2, “Method of treating Alzheimer's disease” (INDUSTRY-ACADEMIC COOPERATION FOUNDATION GYEONGSANG …, priority 2016, dated 2020).
